Source: patent US8796264B2, “2-piperazin-1-yl-4H-1,3-benzothiazin-4-one derivatives and their use for the treatment of mammalian infections” (Ecole Polytechnique Federale de Lausanne (EPFL), priority 2010, dated 2014)
Values after ≈ are worked out from the molar mass of the structure shown.

Experiments:
[1] = Intrinsic clearance in liver microsomes; details: microsomes
Method: Next, PBTZ169 and BTZ043 were incubated at a concentration of 1 μg/mL with 0.1 mg of human or mouse liver microsomes (Invitrogen) in order to measure their intrinsic clearance. The relative amounts of the original compound remaining over time were determined by HPLC.

M. tuberculosis H37Rv = experiment: In vitro inhibitory activity, resazurin reduction assay (MIC99); assay type: cell-based, Mycobacterium tuberculosis; details: Mycobacterium tuberculosis, H37RV; resazurin reduction assay (MIC99); read-out: typical MIC values, M. tuberculosis H37Rv
M. smegmatis = experiment: In vitro inhibitory activity, resazurin reduction assay (MIC99); assay type: cell-based, Mycobacterium smegmatis; details: Mycolicibacterium smegmatis, read-out: typical MIC values, M. smegmatis
[2] = test system: Corynebacterium glutamicum ATCC13032; experiment: In vitro inhibitory activity against actinobacteria (MIC); assay type: cell-based; details: read-out: typical MIC values, Corynebacterium glutamicum ATCC13032
[3] = test system: M. tuberculosis strain H37Rv; experiment: In vivo efficacy in the chronic murine TB model; parameters: species or system mice; details: 50 mg/kg by gavage once daily, six-times/week, 4 weeks
[4] = test system: M. tuberculosis strain H37Rv; experiment: In vivo efficacy in the acute murine TB model; parameters: species or system mice; details: for Log of CFU lungs: 4 weeks treatment, intragastric 5 times a week; for Log of CFU lungs / Medium longevity (days) M ± SEM: compounds and BTZ043 50 mg/kg, isoniazid 25 mg/kg; for Result of treatment, macroscopic condition of the lungs: treatment for prescribed time

Compound	Intrinsic Clearance (Clint), Human liver microsomes ([1]; human)	Intrinsic Clearance (Clint), Mouse liver microsomes ([1]; mouse)	MIC (M. tuberculosis H37Rv)	melting point	MIC (M. smegmatis)	MIC [2]	Reduction of the CFU load in the lungs and spleens compared to treatment with BTZ043 [3]	Log of CFU lungs [4]	Medium longevity (days) M ± SEM [4]	Result of treatment, macroscopic condition of the lungs [4]
NC(=O)N1c2ccccc2C=Cc2ccccc21 [Carbamazepine]	0.6 μL/min/mg of protein	1.1 μL/min/mg of protein	–	–	–	–	–	–	–	–
O=c1nc(N2CCN(C3CCCCC3)CC2)sc2c([N+](=O)[O-])cc(C(F)(F)F)cc12 [Compound 1, 2-(4-cyclonexylpiperazin-1-yl)-8-nitro-6-(trifluoromethyl)-4H-1,3-benzothiazin-4-one]	–	–	0.00075 µg/mL (≈ 0.0017 µM)	189 to 191 °C	≤ 0.17 µg/mL	–	–	–	–	–
CCCCN1CCN(c2nc(=O)c3cc(C(F)(F)F)cc([N+](=O)[O-])c3s2)CC1 [Compound 3, 2-(4-butylpiperazin-1-yl)-8-nitro-6-(trifluoromethyl)-4H-1,3-benzothiazin-4-one]	–	–	0.0015 µg/mL (≈ 0.0036 µM)	119 to 120 °C	≤ 0.17 µg/mL	–	–	–	–	–
CC(C)CN1CCN(c2nc(=O)c3cc(C(F)(F)F)cc([N+](=O)[O-])c3s2)CC1 [Compound 4]	–	–	≤ 0.0019 µg/mL	150 to 153 °C	≤ 0.0019 µg/mL	0.031 µg/mL (≈ 0.0744 µM)	–	–	–	–
CCC(C)N1CCN(c2nc(=O)c3cc(C(F)(F)F)cc([N+](=O)[O-])c3s2)CC1 (stereo not shown) [Compound 5, 2-(4-sec-butylpiperazin-1-yl)-8-nitro-6-(trifluoromethyl)-4H-1,3-benzothiazin-4-one]	–	–	0.00037 µg/mL (≈ 0.000889 µM)	127 to 128 °C	≤ 0.0019 µg/mL	0.062 µg/mL (≈ 0.149 µM)	–	–	–	–
O=c1nc(N2CCN(CCC3CCCCC3)CC2)sc2c([N+](=O)[O-])cc(C(F)(F)F)cc12 [Compound 6, 2-[4-(2-cyclohexylethyl)piperazin-1-yl]-8-nitro-6-(trifluoromethyl)-4H-1,3-benzothiazin-4-one]	–	–	≤ 0.00019 µg/mL	175 to 177 °C	≤ 0.0019 µg/mL	0.125 µg/mL (≈ 0.266 µM)	–	–	–	–
CCCC(C)N1CCN(c2nc(=O)c3cc(C(F)(F)F)cc([N+](=O)[O-])c3s2)CC1 (stereo not shown) [Compound 7, 2-[4-(1-methylbutyl)piperazin-1-yl]-8-nitro-6-(trifluoromethyl)-4H-1,3-benzothiazin-4-one]	–	–	≤ 0.00019 µg/mL	132 to 133 °C	≤ 0.0019 µg/mL	0.125 µg/mL (≈ 0.29 µM)	–	–	–	–
CCCCCCCN1CCN(c2nc(=O)c3cc(C(F)(F)F)cc([N+](=O)[O-])c3s2)CC1 [Compound 8, 2-(4-heptylpiperazin-1-yl)-8-nitro-6-(trifluoromethyl)-4H-1,3-benzothiazin-4-one]	–	–	≤ 0.00019 µg/mL	125 to 127 °C	≤ 0.0019 µg/mL	0.125 µg/mL (≈ 0.273 µM)	significantly more efficacious	–	–	–
O=c1nc(N2CCN(Cc3ccncc3)CC2)sc2c([N+](=O)[O-])cc(C(F)(F)F)cc12 [Compound 9, 8-nitro-2-[4-(pyridin-4-ylmethyl)piperazin-1-yl]-6-(trifluoromethyl)-4H-1,3-benzothiazin-4-one]	–	–	0.015 µg/mL (≈ 0.0332 µM)	200 to 202 °C	0.062 µg/mL (≈ 0.137 µM)	0.125 µg/mL (≈ 0.277 µM)	–	–	–	–
O=c1nc(N2CCN(CCCCOc3ccccc3)CC2)sc2c([N+](=O)[O-])cc(C(F)(F)F)cc12 [Compound 10, 8-nitro-2-[4-(4-phenoxybutyl)piperazin-1-yl]-6-(trifluoromethyl)-4H-1,3-benzothiazin-4-one]	–	–	0.0015 µg/mL (≈ 0.00295 µM)	256 to 258 °C	≤ 0.0019 µg/mL	≤ 0.0019 µg/mL	–	–	–	–
COCCCN1CCN(c2nc(=O)c3cc(C(F)(F)F)cc([N+](=O)[O-])c3s2)CC1 [Compound 11, 2-[4-(3-methoxypropyl)piperazin-1-yl]-8-nitro-6-(trifluoromethyl)-4H-1,3-benzothiazin-4-one]	–	–	0.00375 µg/mL (≈ 0.00867 µM)	133 to 134 °C	0.031 µg/mL (≈ 0.0717 µM)	0.25 µg/mL (≈ 0.578 µM)	–	–	–	–
CCCCCN1CCN(c2nc(=O)c3cc(C(F)(F)F)cc([N+](=O)[O-])c3s2)CC1 [Compound 12]	–	–	0.00037 µg/mL (≈ 0.00086 µM)	133 to 134 °C	≤ 0.0019 µg/mL	0.015 µg/mL (≈ 0.0348 µM)	–	–	–	–
CCC(CC)N1CCN(c2nc(=O)c3cc(C(F)(F)F)cc([N+](=O)[O-])c3s2)CC1 [Compound 13, 2-[4-(1-ethylpropyl)piperazin-1-yl]-8-nitro-6-(trifluoromethyl)-4H-1,3-benzothiazin-4-one]	–	–	0.00037 µg/mL (≈ 0.00086 µM)	152 to 153 °C	≤ 0.0019 µg/mL	≤ 0.0019 µg/mL	–	–	–	–
O=c1nc(N2CCN(CCCC3CCCCC3)CC2)sc2c([N+](=O)[O-])cc(C(F)(F)F)cc12 [Compound 14, 2-[4-(3-cyclohexylpropyl)piperazin-1-yl]-8-nitro-6-(trifluoromethyl)-4H-1,3-benzothiazin-4-one]	–	–	≤ 0.0019 µg/mL	145 to 147 °C	≤ 0.0019 µg/mL	0.75 µg/mL (≈ 1.55 µM)	–	–	–	–
O=c1nc(N2CCN(C34CC5CC(CC(C5)C3)C4)CC2)sc2c([N+](=O)[O-])cc(C(F)(F)F)cc12 [Compound 15, 2-[4-(1-adamantyl)piperazin-1-yl]-8-nitro-6-(trifluoromethyl)-4H-1,3-benzothiazin-4-one]	–	–	0.015 µg/mL (≈ 0.0303 µM)	236 to 238 °C	0.062 µg/mL (≈ 0.125 µM)	< 0.5 µg/mL	–	–	–	–
O=c1nc(N2CCN(CCOCc3ccccc3)CC2)sc2c([N+](=O)[O-])cc(C(F)(F)F)cc12 [Compound 16, 2-{4-[2-(benzyloxy)ethyl]piperazin-1-yl}-8-nitro-6-(trifluoromethyl)-4H-1,3-benzothiazin-4-one]	–	–	0.019 µg/mL (≈ 0.0384 µM)	117 to 119 °C	0.031 µg/mL (≈ 0.0627 µM)	< 0.5 µg/mL	–	–	–	–
O=c1nc(N2CCN(CCCC3(c4ccc(F)cc4)OCCO3)CC2)sc2c([N+](=O)[O-])cc(C(F)(F)F)cc12 [Compound 17, 2-(4-{3-[2-(4-fluorophenyl)-1,3-dioxolan-2-yl]propyl}piperazin-1-yl)-8-nitro-6-(trifluoromethyl)-4H-1,3-benzothiazin-4-one]	–	–	0.0375 µg/mL (≈ 0.066 µM)	152 to 154 °C	0.00375 µg/mL (≈ 0.0066 µM)	0.25 µg/mL (≈ 0.44 µM)	–	–	–	–
CCCN1CCN(c2nc(=O)c3cc(C(F)(F)F)cc([N+](=O)[O-])c3s2)CC1 [Compound 19, 2-(4-propylpiperazin-1-yl)-8-nitro-6-(tfluoromethyl)-4H-1,3-benzothiazin-4-one]	–	–	0.0037 µg/mL (≈ 0.00919 µM)	–	≤ 0.19 µg/mL	0.25 µg/mL (≈ 0.621 µM)	–	4.63	Alive at sacrifice	marked improvement
O=c1nc(N2CCN(CCCOc3ccc(F)cc3)CC2)sc2c([N+](=O)[O-])cc(Cl)cc12 [Compound 20, 6-chloro-2-{4-[3-(4-fluorophenoxy)propyl]piperazin-1-yl}-8-nitro-4H-1,3-benzothiazin-4-one]	–	–	≤ 0.0019 µg/mL	192 to 194 °C	≤ 0.0019 µg/mL	0.0031 µg/mL (≈ 0.00647 µM)	–	–	–	–
O=c1nc(N2CCN(CCCC3CCCCC3)CC2)sc2c([N+](=O)[O-])cc(Cl)cc12 [Compound 21, 6-chloro-2-[4-(3-cyclohexylpropyl)piperazin-1-yl]-8-nitro-4H-1,3-benzothiazin-4-one]	–	–	≤ 0.0019 µg/mL	194 to 195 °C	≤ 0.0019 µg/mL	0.062 µg/mL (≈ 0.137 µM)	–	–	–	–
NNC(=O)c1ccncc1 [Izoniazid, Isoniazid, reference compound]	–	–	–	–	–	–	–	4.34	Alive at sacrifice	marked improvement
